According to patent EP0321208A1, “Improvements in or relating to avian control” (priority 1987, dated 1989):

Columns and labels:
[1] = system: quail chymotrypsin; experiment: ATEE assay: inhibition of quail intestinal chymotrypsin activity; type: biochemical, Japanese quail; conditions: compound 1 x 10⁻⁵M; ATEE substrate; percentage inhibition of control activity ± standard deviation (n = 3); 5 min, 10 µM
Protocol: The substrate was prepared by dissolving ATEE (10 mg) in Tris-HCl buffer of pH 7.5 containing 30% (v/v) of methanol (25 ml). The quail intestine protease activity was partially purified as described above prior to testing for chymotrypsin activity. The reaction was carried out in a quartz cuvette (1 x 0.25 x 1 cm³) containing substrate (1 ml) and 100 mM Tris-HCl buffer (200 µl). The reaction was started by the addition of the partially purified intestine protease (200 µl) and followed bv the decrease in absorbance at 237 nm over a 5 minute period. All determinations were carried out in triplicate against a reagent blank.

[2] = system: pigeon trypsin; experiment: TAME assay: inhibition of pigeon intestinal trypsin activity; type: biochemical; conditions: compound 60 µg/ml; TAME substrate; percentage inhibition of control activity ± standard deviation (n = 3); 5 min
Protocol: Dried avian intestine powder (500 mg) was extracted for 30 minutes in 1 mM HC₁ (5 ml). The extract was centrifuged at 22,000 x g for 30 minutes at 4°C. The resultant supernatant was applied to a column of Sephadex G-50, medium grade (360 mm x 15 mm) and eluted with 0.5 mM HCl at 0.7 ml/min. Fractions (3.5 ml) were collected and tested for the presence of protein by determining their absorbance at 280 nm. The proteinaceous fractions were bulked and concentrated by passing them through an ultrafiltration unit (YM 30 filter). The concentrate was collected and kept at 4°C throughout its use.
The substrate was prepared by dissolving TAME (19 mg) in a mixture of 100 mM Tris-HCl buffer of pH 7.5 (50 ml) and 5% (w/v) calcium chloride solution (2 ml). The pigeon intestine protease was partially purified as described above prior to testing for trypsin activity. The reaction was carried out in a quartz cuvette (1 x 0.25 x 1 cm³) containing substrate (3 ml) and 100 mM Tris-HCl buffer pH 7.5 (100 µl). The reaction was started by the addition of the partially purified intestine protease (100 µl) and followed by the decrease in absorbance at 247 nm over a 5 minute period.
In both the chymotrypsin and the trypsin assays a control was however carried out using the 200 µl of buffer containing no added compound.

[3] = system: feral pigeons; experiment: Three day no-choice feeding test with feral pigeons; type: in vivo; conditions: 0.5% w/w compound/pellet, ± standard deviation; for Mean weight difference: after the test compared with before; for Mean consumption: treated food
Protocol: (§1) Feral pigeons were transferred from a communal outdoor aviary to individual cages and maintained on a 10 hour light - 14 hour dark cycle. Birds were gradually weaned away from their normal diet of maize, wheat and maple peas to a standard laboratory diet of turkey starter pellets.
(§2) The pellets were oven dried and then left to absorb atmospheric moisture. The control food was sprayed with the same volume of acetone/water mixture.
(§3) A group of 35 feral pigeons was caged individually for the trials which used eight compounds of formula (I) together with sucrose octaacetate and dimethyl anthranilate, both of which are substances which are known to be avian repellents. Each bird was subjected to treatment with each compound in a random order subject to the limitation of a latin square design. Each treatment was presented to the birds in no-choice and two-choice conditions. The no-choice phase lasted 3 days, during which a bird was presented with a single bowl containing 120 g of treated food. Each bird was weighed before and after the no-choice phase, as was the amount of food remaining. There immediately followed a two-choice phase in which the birds could choose between food treated with a given chemical and a bowl containing otherwise identical pellets without the chemical (the control treatment utilising two bowls of acetone/water treated pellets, one of which was arbitrarily selected as the control). The two-choice phase lasted four days during which food consumption was monitored daily. The position of the food bowls was alternated each day in order to overcome the confusing of food preference with position preference and ample water and grit were supplied throughout the trial.

[4] = system: feral pigeons; experiment: Four day two-choice feeding test with feral pigeons; type: in vivo; conditions: for Mean consumption of treated food: four day two-choice, 0.5% w/w compound/pellet
Protocol: as §1, §2, §3
The data obtained in the four day two-choice test is presented in Table 5 for mean consumption of treated food. […]

## O=C(O)C=Cc1cccc(O)c1 [3-Hydroxycinnamic acid]
[1]
  Inhibition of Activity Chymotrypsin: 43 ± 2 percentage

## CC(=Cc1ccccc1)C(=O)O [α-Methylcinnamic acid]
[1]
  Inhibition of Activity Chymotrypsin: 36 ± 3 percentage

## O=C(C=Cc1ccc(O)c(O)c1)OC1CC(O)(C(=O)O)CC(O)C1O (centres unmarked) [3-(3',4'-Dihydroxycinnamoyl)-quinic acid]
[2]
  Inhibition of Activity: 3 ± 1 percentage

## O=CC=Cc1ccccc1 [Cinnamaldehyde]
[1]
  Inhibition of Activity Chymotrypsin: 57 ± 4 percentage

## COc1cc(C(=O)O)cc(OC)c1O [4-Hydroxy-3,5-dimethoxy-benzoic acid, reference compound]
[1]
  Inhibition of Activity Chymotrypsin: 2 ± 2 percentage

## O=C(O)Cc1ccccc1 [Phenylacetic acid, reference compound]
[1]
  Inhibition of Activity Chymotrypsin: 13 ± 2 percentage

## O=C(O)CCc1ccccc1 [Hydrocinnamic acid]
[1]
  Inhibition of Activity Chymotrypsin: 19 ± 3 percentage

## O=C(O)c1ccccc1 [Benzoic acid, reference compound]
[1]
  Inhibition of Activity Chymotrypsin: 14 ± 1 percentage

## CC(=O)OC[C@H]1O[C@@](COC(C)=O)(O[C@H]2O[C@H](COC(C)=O)[C@@H](OC(C)=O)[C@H](OC(C)=O)[C@H]2OC(C)=O)[C@@H](OC(C)=O)[C@@H]1OC(C)=O [Sucrose octaacetate, reference compound]
[3]
  Mean weight difference: 2.3 ± 0.9 grams
  Mean consumption: 54.0 ± 2.6 grams
[4]
  Mean consumption of treated food: 28.6 ± 2.4 grams

## COc1ccc(C=CC(=O)O)cc1OC [3,4-Dimethoxycinnamic acid]
[1]
  Inhibition of Activity Chymotrypsin: 83 ± 3 percentage
[2]
  Inhibition of Activity: 16 ± 1 percentage
[3]
  Mean weight difference: -1.1 ± 0.9 grams
  Mean consumption: 55.3 ± 2.3 grams
[4]
  Mean consumption of treated food: 27.1 ± 2.8 grams

## OCC=Cc1ccccc1 [Cinnamyl alcohol]
[1]
  Inhibition of Activity Chymotrypsin: 20 ± 6 percentage

## COc1cccc(C=CC(=O)O)c1 [3-Methoxycinnamic acid]
[1]
  Inhibition of Activity Chymotrypsin: 56 ± 4 percentage

## COc1cc(C=CC(=O)O)ccc1O [4-Hydroxy-3-methoxycinnamic acid]
[2]
  Inhibition of Activity: 16 ± 4 percentage
[3]
  Mean weight difference: -0.2 ± 1.1 grams
  Mean consumption: 54.5 ± 2.9 grams
[4]
  Mean consumption of treated food: 22.7 ± 2.4 grams

## CNc1ccccc1C(=O)OC [Dimethylanthranilate, Dimethyl anthranilate, reference compound]
[2]
  Inhibition of Activity: 9 ± 2 percentage
[3]
  Mean weight difference: -4.8 ± 2.0 grams
  Mean consumption: 45.9 ± 2.9 grams
[4]
  Mean consumption of treated food: 18.2 ± 2.4 grams

## O=C(O)C=Cc1ccc(O)cc1 [4-Hydroxycinnamic acid, 4-hydroxycinnamic acid]
[1]
  Inhibition of Activity Chymotrypsin: 12 ± 1 percentage

## N#CC=Cc1ccccc1 [Cinnamonitrile]
[1]
  Inhibition of Activity Chymotrypsin: 23 ± 1 percentage

## CC(C=O)=Cc1ccccc1 [α-Methylcinnamaldehyde]
[1]
  Inhibition of Activity Chymotrypsin: 17 ± 5 percentage

## COc1cc(C=CC(=O)O)cc(OC)c1 [3,5-Dimethoxycinnamic acid]
[1]
  Inhibition of Activity Chymotrypsin: 63 ± 1 percentage
[2]
  Inhibition of Activity: 14 ± 1 percentage
[3]
  Mean weight difference: -12.9 ± 1.2 grams
  Mean consumption: 33.1 ± 1.5 grams
[4]
  Mean consumption of treated food: 12.1 ± 1.7 grams
[4]; two-choice test, proportions of treated and untreated food consumed, statement in words
  deterrent effect on food consumption: most marked
